According to patent US20250057917A1, “COMPOSITION AND METHODS FOR TREATING RADIATION INDUCED INJURY” (Xequel Bio, Inc., priority 2023, published 2025):
Like-named read-outs stand apart in the source and are kept apart here. The star is where a group is joined. Biotin = O=C1N[C@H]2[C@H](CS[C@H]2CCCCC(=O)*)N1; Ahx = NCCCCCC(=O)O

What was measured:
keratinocyte [1] = settings: aCT1 treatment, Student's t-test p<0.0018, n=3, FIG. 9B
Text: (§1) Student's t-test, *p<0.0001; n=8; mean±SEM. […] Student's t-test, *p<0.0018; n=3; mean±SEM.

keratinocyte [2] = settings: aCT1 treatment, Student's t-test p<0.0001, n=8, FIG. 9A
Text: as §1

## {Biotin-Ahx}-RQPKIWFPNRRKPWKKRPRPDDLEI-OH [aCT1]
Keratinocyte [1]
  keratinocyte migration: an increase in keratinocyte migration
Keratinocyte [1]; listed as aCT1 peptide
  keratinocyte migration: accelerated keratinocyte migration and proliferation
Keratinocyte [2]
  keratinocyte proliferation: an increase in keratinocyte proliferation
Keratinocyte [2]; listed as aCT1 peptide
  keratinocyte proliferation: accelerated keratinocyte migration and proliferation
